Data from ChEMBL document CHEMBL1201862, “PubChem BioAssay data set” (2004).
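These data come from cells grown in 96-well plates and exposed to compound for 48 hours at five concentrations. Abbreviation: GI50, concentration required for 50% inhibition of growth.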 Calls of active or inactive are those of the source. Rule as the data show it: active = GI50 up to about 1.1 µM and inactive = higher.

Assays:
Assay in all cases: NCI tumour cell line growth inhibition, 48 h
[1] = tested on: 786-0
[2] = tested on: A498
[3] = tested on: ACHN
[4] = tested on: BT-549
[5] = tested on: CAKI-1
[6] = tested on: CCRF-CEM
[7] = tested on: COLO 205
[8] = tested on: DU-145
[9] = tested on: EKVX
[10] = tested on: HCT-116
[11] = tested on: HCT-15
[12] = tested on: HL-60
[13] = tested on: HOP-62
[14] = tested on: HT-29
[15] = tested on: Hs-578T
[16] = tested on: IGROV-1
[17] = tested on: K562
[18] = tested on: KM12
[19] = tested on: LOX IMVI
[20] = tested on: M14
[21] = tested on: MCF7
[22] = tested on: MDA-MB-231
[23] = tested on: MDA-MB-435
[24] = tested on: MDA-N
[25] = tested on: MOLT-4
[26] = tested on: Malme-3M
[27] = tested on: NCI-H226
[28] = tested on: NCI-H23
[29] = tested on: NCI/ADR-RES
[30] = tested on: OVCAR-3
[31] = tested on: OVCAR-5
[32] = tested on: OVCAR-8
[33] = tested on: PC-3
[34] = tested on: RPMI-8226
[35] = tested on: RXF 393
[36] = tested on: SF-268
[37] = tested on: SF-539
[38] = tested on: SK-MEL-28
[39] = tested on: SK-MEL-2
[40] = tested on: SK-MEL-5
[41] = tested on: SK-OV-3
[42] = tested on: SN12C
[43] = tested on: SNB-19
[44] = tested on: SNB-75
[45] = tested on: SW-620
[46] = tested on: T47D
[47] = tested on: TK-10
[48] = tested on: U-251
[49] = tested on: UACC-257
[50] = tested on: UACC-62
[51] = tested on: UO-31

`CC(/C=C/C(O)=C1/C(=O)CNC1=O)=C\[C@@H](C)[C@H]1O[C@@]2(C)O[C@H](C(=O)[C@@H]3O[C@@]32C)[C@@H]1C` was tested, and the GI50 [1] was 16.7 µM (inactive), the GI50 [2] was 14.3 µM (inactive) and the GI50 [3] was 19.6 µM (inactive). The GI50 [4] was 15.8 µM (inactive), the GI50 [5] was 19.4 µM (inactive) and the GI50 [6] was 7.24 µM (inactive). The GI50 [7] was 20.7 µM (inactive), the GI50 [8] was 18.9 µM (inactive) and the GI50 [9] was 17.7 µM (inactive). The GI50 [10] was 18.9 µM (inactive), the GI50 [11] was 18.4 µM and the GI50 [12] was 11.7 µM (inactive). For the same compound, the GI50 [13] was 22.2 µM (inactive), the GI50 [14] was 21.9 µM (inactive) and the GI50 [15] was 24.9 µM (inactive). The GI50 [16] was 20.4 µM (inactive), the GI50 [17] was 19.8 µM (inactive) and the GI50 [18] was 20 µM (inactive). The GI50 [19] was 14.5 µM (inactive), the GI50 [20] was 31.8 µM (inactive) and the GI50 [21] was 19.7 µM (inactive). For the same compound, the GI50 [22] was 18.4 µM (inactive), the GI50 [23] was 28.2 µM (inactive) and the GI50 [24] was 35.8 µM (inactive). The GI50 [25] was 14.7 µM (inactive), the GI50 [26] was 18.1 µM (inactive) and the GI50 [27] was 21.2 µM (inactive). The GI50 [28] was 23.5 µM (inactive), the GI50 [29] was 26.6 µM (inactive) and the GI50 [30] was 18.9 µM (inactive). For the same compound, the GI50 [31] was 18.3 µM (inactive), the GI50 [32] was 20.2 µM (inactive) and the GI50 [33] was 14 µM (inactive). The GI50 [34] was 12.2 µM (inactive), the GI50 [35] was 1.14 µM (inactive) and the GI50 [36] was 21.1 µM (inactive). The GI50 [37] was 18.7 µM (inactive), the GI50 [38] was 17.6 µM (inactive) and the GI50 [39] was 22.7 µM (inactive). The GI50 [40] was 17.5 µM (inactive), the GI50 [41] was 21.5 µM (inactive) and the GI50 [42] was 20.3 µM (inactive). The GI50 [43] was 22.9 µM (inactive), the GI50 [44] was 34.8 µM (inactive) and the GI50 [45] was 29.8 µM (inactive). For the same compound, the GI50 [46] was 15.1 µM (inactive), the GI50 [47] was 19.2 µM (inactive) and the GI50 [48] was 19.5 µM (inactive). For the same compound, the GI50 [49] was 15.3 µM (inactive), the GI50 [50] was 16.7 µM (inactive) and the GI50 [51] was 13.8 µM (inactive).
